The text below walks through data of patent publication US20200261596A1, “Therapeutic Particles with Peptide Boronic Acid or Boronate Ester Compounds and Methods of Making and Using Same” (Pfizer Inc., priority 2016, published 2020).

The nature of one data set: Bortezomib solubility. It counts as physicochemical. To be noted: read-out: BTZ solubility.
A short description of data set [1]: Pharmacologic kinetic profile in rats (plasma levels by LCMS). The data set is classed as in vivo, Sprague-Dawley rats. Particulars: single intravenous dose of 0.1 mg/kg, FIG. 13A. How it is done:
Rats (male Sprague Dawley, approximately 300 g with jugular cannulae are given a single intravenous dose of 0.1 mg/kg free drug or passively targeted nanoparticles (PTNP) encapsulating drug at time t=0. At various times after dosing, blood samples are collected from the jugular cannulae into tubes containing lithium heparin, and plasma is prepared. Plasma levels are determined by extraction of the drug from plasma followed by LCMS analysis.

Structures are written as SMILES. Converted amounts (≈) assume the structure as drawn. Read-outs that look alike come from different tables or passages of the source. A value given as a limit tells only on which side of the number the result lay.

In the case of `CC(C)C[C@H](NC(=O)[C@H](Cc1ccccc1)NC(=O)c1cnccn1)B(O)O` [Bortezomib, bortezomib], the solubility was 1300 µg/mL (≈ 3.38 mM) in the data set “Bortezomib solubility” (0.5% sodium cholate, 2% BA, 4% EA in water (water phase), aqueous with cosolvent or surfactant or cyclodextrin, Water phase: 0.5% sodium cholate, 2% BA, 4% EA in water); > 93000 µg/mL in “Bortezomib solubility” (benzyl alcohol:ethyl acetate 21:79 (w/w %) (oil phase), organic solvent or mixture, Oil phase: Benzyl alcohol:Ethyl acetate (BA:EA = 21:79, w/w %)); 1100 µg/mL (≈ 2.86 mM) in “Bortezomib solubility” (water (quench phase), water, Quench phase: water). Further, the “circulation time / plasma clearance” value in data set [1] is reported as “rapidly cleared from the plasma”.
